Data: patent publication US6781000B1, “Alpha-ketoamide inhibitors of 20S proteasome” (CV Theurapeutics, Inc., priority 1998, dated 2004)

Key:
[1] = target: T1, chymotrypsin-like activity of 20S proteasome (Bos taurus, UniProt Q2TBX6+Q32KL2); assay: 20S proteasome chymotryptic activity inhibition assay (Suc-Leu-Leu-Val-Tyr-AMC cleavage); type: biochemical; settings: 2 μg 20S proteasome from bovine brain, 50 μM fluorogenic substrate, 15 minutes at 37° C., pH7.5
T1 construct: was purified to homogeneity from bovine brain according to published methods; from tissue; host or cells: bovine brain
Summary of the method: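 Bovine brain 20S proteasome (2 μg) with inhibitor at 0.1-100 μg/ml in 50 mM HEPES, 0.1% SDS, pH7.5. Reaction started with 50 μM Suc-LLVY-AMC, run 15 min at 37° C, stopped with pH 4.0 acetate; liberated AMC read by fluorescence (EX 370 nm, EM 430 nm).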

[2] = target: T2, peptidylglutamyl activity of 20S proteasome (Bos taurus, UniProt Q2TBP0+Q3MHN0); assay: 20S proteasome peptidylglutamyl activity inhibition assay (CBZ-D-Ala-Leu-Glu-AMC cleavage); type: biochemical; settings: Example 6: 2 μg 20S proteasome from bovine brain, substrate CBZ D-Ala-Leu-Glu-AMC, 15 minutes at 37° C.
T2 construct: was purified to homogeneity from bovine brain according to published methods; from tissue; host or cells: bovine brain
Method: Compounds of this invention prepared according to the method of Example 1 were also tested as follows. The 20S catalytic subunit of the proteasome (also known as the multicatalytic proteinase complex) was purified to homogeneity from bovine brain according to published methods (Wilk S. and Orlowski, M. 1983, 40 842 J. Neurochem). […] of the complex is measured by the increase in fluorescence following cleavage of the substrate peptide CBZ D-Ala-Leu-Glu-(7-amino-4-methyl coumarin). The standard in vitro assay consists of 2 μg 20S proteasome, 0.1-100 μg/ml proteasome inhibitor in […] 50 mM HEPES, containing 0.1% sodium dodecyl sulphate, pH 7.5. The proteolytic reaction is initiated by the addition of […] fluorogenic peptide substrate and allowed to progress for 15 minutes at 37° C. The reaction is terminated by the addition of […] 100 mM acetate buffer, pH 4.0. The rate of proteolysis is directly proportional to the amount of liberated aminomethylcoumarin which is measured by fluorescent spectroscopy (EX 370 nm, EM 430 nm). Compounds 1-207 were tested for peptidylglutamyl activity inhibition at >10 μg/mL. Compound 190 was active at 5 μg/mL.

Row | IC50 for the inhibition of the chymotrypsin-like activity of 20S proteasome [1] [µg/mL] | peptidylglutamyl activity inhibition, active at [2] [µg/mL] | IC50 [1] [µM] | Compound
1 | 3 | 5 | – | CC(C)CC(NC(=O)C(Cc1ccc(-c2ccccc2)cc1)NC(=O)C(=O)Cc1c[nH]c2ccccc12)C(=O)NC(Cc1c[nH]cn1)C(=O)O (stereo not shown) [Compound 190]
2 | – | – | > 20.6 | CC(C)CC(NC(=O)C(=O)Cc1c[nH]c2ccccc12)C(=O)NC(CC(C)C)C(=O)NCC(=O)O (stereo not shown) [Compound 5]
3 | – | – | > 18.4 | CC(C)C[C@H](NC(=O)[C@@H](CC(C)C)NC(=O)[C@@H](CC(C)C)NC(=O)C(=O)Cc1c[nH]c2ccccc12)C(=O)O [Compound 23]
4 | >10 | – | – | CCCCC(NC(=O)C(CC(C)C)NC(=O)CNC(=O)C(=O)Cc1c[nH]c2ccccc12)C(=O)O (stereo not shown) [Compound 119]
5 | >10 | – | – | CC(C)CC(NC(=O)C(=O)Cc1c[nH]c2ccccc12)C(=O)NC(CC(C)C)C(=O)NC(Cc1ccc(O)cc1)C(=O)O (stereo not shown) [Compound 21]
6 | >10 | – | – | CC(C)CC(NC(=O)C(C)NC(=O)OCc1c[nH]c2ccccc12)C(=O)NC(C)C(=O)O (stereo not shown) [Compound 72]
